Source: ChEMBL document CHEMBL4342479, “Reactive Oxygen Species (ROS)-Activatable Prodrug for Selective Activation of ATF6 after Ischemia/Reperfusion Injury” (ACS Med Chem Lett, 2020)
The source made the active and inactive calls. The calls are words filed in the database; no cut-off is given here.

Columns and labels:
Cytochrome P450 1A2 [1] = biological target: T1, Cytochrome P450 1A2 (Homo sapiens, UniProt P05177); test: Drug metabolism assessed as recombinant CYP1A2 (unknown origin)-mediated oxidation incubated for 24 hrs in presence of NADP+ by LC-MS analysis; format: ADME; details: recombinant enzyme
T1 sequence (P05177 whole entry): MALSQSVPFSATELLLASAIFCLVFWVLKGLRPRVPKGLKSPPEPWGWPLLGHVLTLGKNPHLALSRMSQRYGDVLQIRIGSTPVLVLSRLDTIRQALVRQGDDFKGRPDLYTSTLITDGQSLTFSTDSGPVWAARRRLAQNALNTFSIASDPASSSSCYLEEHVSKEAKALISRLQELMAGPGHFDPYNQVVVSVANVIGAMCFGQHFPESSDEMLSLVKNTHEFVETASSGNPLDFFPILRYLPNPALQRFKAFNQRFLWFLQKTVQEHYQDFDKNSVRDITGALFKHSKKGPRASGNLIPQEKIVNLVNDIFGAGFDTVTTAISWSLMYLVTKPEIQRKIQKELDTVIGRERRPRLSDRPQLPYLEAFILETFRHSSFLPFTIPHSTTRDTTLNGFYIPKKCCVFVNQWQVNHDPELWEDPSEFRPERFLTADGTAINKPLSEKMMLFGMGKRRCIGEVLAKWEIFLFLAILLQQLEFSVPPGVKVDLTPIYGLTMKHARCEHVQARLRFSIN

[2] = Drug metabolism assessed as intact compound incubated for 24 hrs in presence of NADP+ and absence of recombinant CYP1A2 by LC-MS analysis
[3] = biological target: T2, Cyclic AMP-dependent transcription factor ATF-6 alpha (Rattus norvegicus) (UniProt G3V909); test: Activation of ATF6 in NRVM isolated from Sprague-Dawley rat assessed as increase in GRP78 expression at 10 uM measured after 16 hrs by SYBR green dye-based qRT-PCR analysis
T2 sequence (whole entry): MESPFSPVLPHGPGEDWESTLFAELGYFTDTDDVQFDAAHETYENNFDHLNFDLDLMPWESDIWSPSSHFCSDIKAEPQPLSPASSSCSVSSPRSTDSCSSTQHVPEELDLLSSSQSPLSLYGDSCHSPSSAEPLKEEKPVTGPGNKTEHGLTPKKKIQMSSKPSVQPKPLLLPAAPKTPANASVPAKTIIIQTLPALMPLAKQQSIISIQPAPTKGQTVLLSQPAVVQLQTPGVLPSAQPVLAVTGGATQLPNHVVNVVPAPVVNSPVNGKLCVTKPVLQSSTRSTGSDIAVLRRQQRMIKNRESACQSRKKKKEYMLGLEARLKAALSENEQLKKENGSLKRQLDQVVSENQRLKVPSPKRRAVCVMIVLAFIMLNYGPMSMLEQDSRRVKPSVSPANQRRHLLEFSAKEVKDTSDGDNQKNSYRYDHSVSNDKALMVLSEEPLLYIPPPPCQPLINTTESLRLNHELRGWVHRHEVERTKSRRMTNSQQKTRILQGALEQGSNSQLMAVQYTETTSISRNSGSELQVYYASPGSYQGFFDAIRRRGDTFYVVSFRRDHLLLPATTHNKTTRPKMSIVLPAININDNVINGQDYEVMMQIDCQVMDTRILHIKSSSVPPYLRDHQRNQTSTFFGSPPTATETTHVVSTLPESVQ

[4] = biological target: T2, Cyclic AMP-dependent transcription factor ATF-6 alpha (Rattus norvegicus); test: Activation of ATF6 in NRVM isolated from Sprague-Dawley rat assessed as increase in catalase expression at 10 uM measured after 16 hrs by SYBR green dye-based qRT-PCR analysis
Rattus norvegicus = organism: Rattus norvegicus; test: Cytoprotection against hydrogen peroxide-induced toxicity in NRVM isolated from Sprague-Dawley rat assessed as increase in cell viability at 10 uM pretreated for 24 hrs followed by hydrogen peroxide challenge measured after 8 hrs by MTT assay; format: functional
[5] = biological target: T2, Cyclic AMP-dependent transcription factor ATF-6 alpha (Rattus norvegicus); test: Activation of ATF6 in simulated-ischemia-reperfusion NRVM isolated from Sprague-Dawley rat assessed as increase in cell viability by measuring media LDH content at 10 uM followed by ischemia simulation for 8 hrs and subsequent reperfusion and compound treatment for 24 hrs by LDH assay
[6] = biological target: T2, Cyclic AMP-dependent transcription factor ATF-6 alpha (Rattus norvegicus); test: Activation of ATF6 in simulated-ischemia-reperfusion NRVM isolated from Sprague-Dawley rat assessed as increase in cell viability by measuring media LDH content at 10 uM followed by ischemia simulation for 8 hrs and subsequent reperfusion and compound treatment for 24 hrs under normoxia condition by calcein-AM green dye based fluorescence microscopy
[7] = biological target: T2, Cyclic AMP-dependent transcription factor ATF-6 alpha (Rattus norvegicus); test: Activation of ATF6 in NRVM isolated from Sprague-Dawley rat assessed as increase in catalase expression at 10 uM using compound pre-activated with hydrogen peroxide for 8 hrs prior to NRVM treatment and measured after 16 hrs by SYBR green dye-based qRT-PCR analysis
[8] = Stability of compound in HBS buffer at 1 mM at pH 7.3 and 37 degree C by HPLC or LC-MS analysis; format: physicochemical; details: pH 7.3, 1000 µM
[9] = Drug degradation in HBS buffer assessed as half life at 1 mM at pH 7.3 and 37 degree C by HPLC or LC-MS analysis; format: physicochemical
Cytochrome P450 1A2 [10] = biological target: T1, Cytochrome P450 1A2; test: Substrate activity at recombinant CYP1A2 (unknown origin) assessed as [4-[[4-methyl-2-(3-phenylpropanoylamino)phenoxy]methyl]phenyl]boronic acid formation incubated for 24 hrs in presence of NADP+ by LC-MS analysis; format: ADME; details: recombinant enzyme
[11] = biological target: T2, Cyclic AMP-dependent transcription factor ATF-6 alpha (Rattus norvegicus); test: Activation of ATF6 in NRVM isolated from Sprague-Dawley rat assessed as increase in GRP78 expression at 10 uM using compound pre-activated with hydrogen peroxide for 8 hrs prior to NRVM treatment and measured after 16 hrs by SYBR green dye-based qRT-PCR analysis

Drug metabolism (Cytochrome P450 1A2 [1]) | Activity [3] | Activity [4] | Activity [7] | Stability [8] | half-life at 1000 µM [9] | Drug metabolism (Cytochrome P450 1A2 [10]) | Activity [11] | Compound | Drug metabolism [2] | Activity (Rattus norvegicus) | Activity [5] | Activity [6]
Metabolite_Detected | Active | Active |  |  |  |  |  | Cc1ccc(O)c(NC(=O)CCc2ccccc2)c1 | Metabolite not detected | Active | Active | Active
 |  |  | Active | Stable | 25.8 days | Metabolite_Notdetected | Active | Cc1ccc(OCc2ccc(B3OC(C)(C)C(C)(C)O3)cc2)c(NC(=O)CCc2ccccc2)c1 |  | Active | Active | Active
 |  |  | inactive |  |  |  | inactive | Cc1ccc(OCCc2ccc(B3OC(C)(C)C(C)(C)O3)cc2)c(NC(=O)CCc2ccccc2)c1 |  |  |  | 
